According to US20200077656A1, “Use of an Acyclic Picolinamide Compound as a Fungicide for Control of Phytopathogenic Fungi in Row Crops” (priority 2017, published 2020):

Tests used:
Assay type in all cases: in vivo
Pyrenophora teres = assay: Field assessment of Pyrenophora teres (PYRNTE) on barley, Trial 2 (natural infection); conditions: EC + Trycol; for % Control (AUDPC) of PYRNTE, Trial 2: barley
Protocol: (§1) Compound I was applied at a water volume of 200 L/ha under natural infection of Pyrenophora teres. Disease severity was recorded as a percentage of visual diseased foliage on whole plot. Net blotch of barley infection was assessed three times at 7, 14 and 21 days after the last application. The disease infection was recorded following EPPO PP1/26 guideline prescriptions. Area under the disease progress curve (AUDPC) was calculated for each plot using the sets of recorded severity data. Relative AUDPC (% control based on AUDPC) was calculated as percent of the nontreated control.

[1] = system: Blumeria graminis f. sp. tritici; assay: Field assessment of Blumeria graminis f. sp. tritici (ERYSGT) on wheat
Protocol: as §1, with “Field Assessment” for “Compound I was applied at a water volume”, “Blumeria graminis f sp. […]” for “200 L/ha under natural infection of Pyrenophora teres.”, “Net blotch of barley” left out, “12, 19” for “7, 14”, “26” for “21”

Cercospora zeae-maydis = assay: Field assessment of Cercospora zeae-maydis (CERCZM) in corn; conditions: EC + Trycol adjuvant
Protocol: Field Assessment of Cercospora zeae-Maydis (CERCZM) in Corn: […] The experimental plots were inoculated with grey leaf spot 24 hr after application. […] Disease severity (percentage of visual diseased foliage on whole plot) was assessed five times during the trial (22-50 days after application, DAA). The disease infection was recorded following EPPO PP1/26 guideline prescriptions. Area under the disease progress curve (AUDPC) was calculated for each plot using the sets of recorded severity data. Relative AUDPC (% control based on AUDPC) was calculated as percent of the nontreated control.

Cercospora arachidicola = assay: Field assessment of Cercospora arachidicola (MYCOAR) in peanut; conditions: Table 8, early leaf spot of peanut, AUDPC based
Ramularia collo-cygni = assay: Field assessment of Ramularia collo-cygni (RAMUCC) on barley; conditions: 5% EC + Trycol adjuvant, winter barley
Protocol: Field Assessment of Ramularia […]) on Barley: A fungicidal treatment containing a 5% EC formulation of compound I, tanked mixed with an adjuvant (Trycol, 50% w/w at 0.1% v/v), was sprayed on barley plants (winter barley; Cassia variety) at BBCH 33 growth stage of winter barley (5% infection on L5 at application), under natural infection of Ramularia leaf spot of barley. […] Disease severity was recorded as a percentage of visual diseased foliage on whole plot. Ramularia leaf spot of barley infection was assessed three times at 7, 14 and 21 days after the last application. The disease infection was recorded following EPPO PP1/26 guideline prescriptions. Area under the disease progress curve (AUDPC) was calculated for each plot using the sets of recorded severity data. Relative AUDPC (% control based on AUDPC) was calculated as percent of the nontreated control.

[2] = system: Cercosporidium personatum; assay: Field assessment of Cercosporidium personatum (MYCOBE) in peanut; conditions: Table 9, late leaf spot of peanut, AUDPC based
[3] = 50 g/ha, Agnique BP420 200 mL/ha
[4] = 75 g/ha, Agnique BP420 300 mL/ha
[5] = 100 g/ha, Adsee C80W 80% 250 g/ha
[6] = 100 g/ha, Agnique BP420 400 mL/ha
[7] = 150 g/ha, Agnique BP420 600 mL/ha

COc1ccnc(C(=O)N[C@@H](C)C(=O)O[C@@H](C)C(c2ccc(F)cc2)c2ccc(F)cc2)c1OC(C)=O [Compound I, (S)-1,1-bis(4-fluorophenyl)propan-2-yl (3-acetoxy-4-methoxypicolinoyl)-L-alaninate]
% Control (AUDPC) of PYRNTE, Trial 2 (Pyrenophora teres; 50 g ai/ha): B (51-75) | % Control (AUDPC) of PYRNTE, Trial 2 (Pyrenophora teres; 100 g ai/ha): B (51-75) | % Control (AUDPC) of PYRNTE, Trial 2 (Pyrenophora teres; 150 g ai/ha): B (51-75) | control of Pyrenophora teres on barley (in words) (Pyrenophora teres; replicated field trial, 50, 100 and 150 g ai/ha, natural infection): useful levels of control | % Control (AUDPC) of ERYSGT ([1]; 5 g ai/ha, EC + Agnique BP-420): C (26-50) | % Control (AUDPC) of ERYSGT ([1]; 5 g ai/ha, SC + Agnique BP-420): C (26-50) | % Control (AUDPC) of ERYSGT ([1]; 20 g ai/ha, EC + Agnique BP-420): A (76-100) | % Control (AUDPC) of ERYSGT ([1]; 20 g ai/ha, SC + Agnique BP-420): B (51-75) | % Control (AUDPC) of ERYSGT ([1]; 40 g ai/ha, EC + Agnique BP-420): A (76-100) | % Control (AUDPC) of ERYSGT ([1]; 40 g ai/ha, SC + Agnique BP-420): A (76-100) | % Control (AUDPC) of ERYSGT ([1]; 60 g ai/ha, EC + Agnique BP-420): A (76-100) | % Control (AUDPC) of ERYSGT ([1]; 60 g ai/ha, SC + Agnique BP-420): A (76-100) | % Control (AUDPC) of ERYSGT ([1]; 80 g ai/ha, EC + Agnique BP-420): A (76-100) | % Control (AUDPC) of ERYSGT ([1]; 80 g ai/ha, SC + Agnique BP-420): A (76-100) | % Control (AUDPC) of ERYSGT ([1]; 120 g ai/ha, EC + Agnique BP-420): A (76-100) | % Control (AUDPC) of ERYSGT ([1]; 120 g ai/ha, SC + Agnique BP-420): A (76-100) | Disease control of CERCZM, percent control based on AUDPC (Cercospora zeae-maydis; 50 g ai/ha): B (51-75) | Disease control of CERCZM, percent control based on AUDPC (Cercospora zeae-maydis; 100 g ai/ha): B (51-75) | Disease control of CERCZM, percent control based on AUDPC (Cercospora zeae-maydis; 150 g ai/ha): B (51-75) | Calc Percent Control of MYCOAR (Cercospora arachidicola; [3]): 31.5% | Calc Percent Control of MYCOAR (Cercospora arachidicola; 50 g/ha, MSO 100 g/ha): 32.0% | Calc Percent Control of MYCOAR (Cercospora arachidicola; [4]): 35.6% | Calc Percent Control of MYCOAR (Cercospora arachidicola; 75 g/ha, MSO 150 g/ha): 36.3% | Calc Percent Control of MYCOAR (Cercospora arachidicola; [5]): 40.3% | Calc Percent Control of MYCOAR (Cercospora arachidicola; [6]): 44.8% | Calc Percent Control of MYCOAR (Cercospora arachidicola; 100 g/ha, MSO 200 g/ha): 44.4% | Calc Percent Control of MYCOAR (Cercospora arachidicola; [7]): 57.7% | Calc Percent Control of MYCOAR (Cercospora arachidicola; 150 g/ha, MSO 300 g/ha): 52.3% | Disease control of RAMUCC, percent control based on AUDPC (Ramularia collo-cygni; 75 g ai/ha): C (26-50) | Disease control of RAMUCC, percent control based on AUDPC (Ramularia collo-cygni; 100 g ai/ha): C (26-50) | Disease control of RAMUCC, percent control based on AUDPC (Ramularia collo-cygni; 150 g ai/ha): B (51-75) | Calc Percent Control of MYCOBE [2, 3]: 28.5% | Calc Percent Control of MYCOBE ([2]; 50 g/ha, MSO 100 g/ha): 24.0% | Calc Percent Control of MYCOBE [2, 4]: 30.0% | Calc Percent Control of MYCOBE ([2]; 75 g/ha, MSO 150 g/ha): 26.8% | Calc Percent Control of MYCOBE [2, 5]: 26.9% | Calc Percent Control of MYCOBE [2, 6]: 36.0% | Calc Percent Control of MYCOBE ([2]; 100 g/ha, MSO 200 g/ha): 29.0% | Calc Percent Control of MYCOBE [2, 7]: 44.7% | Calc Percent Control of MYCOBE ([2]; 150 g/ha, MSO 300 g/ha): 38.5%
